Experimental data: patent US20220411448A1, “CHROMENE-4-ONE DERIVATIVES AS BRAIN-DERIVED NEUROTROPHIC FACTOR (BDNF) MIMETICS” (FLORATEK PHARMA AG, priority 2019, published 2022)

Experiments:
[1] = system: primary cultures of cerebral cortical astrocytes; assay: Lactate release assay in astrocyte cultures; type: cell-based, mouse; conditions: various concentrations, 30 minutes after application
Protocol: Primary cultures of cerebral cortical astrocytes were prepared from Swiss albino newborn mice (1-2 days old) as described [Pellerin L, Magistretti P J. Glutamate uptake into astrocytes stimulates aerobic glycolysis: a mechanism coupling neuronal activity to glucose utilization. Proc Natl Acad Sci USA. 1994 Oct. 25; 91(22):10625-9]. This procedure yields cultures that are >95% immunoreactive for glial fibrillary acidic protein.
Astrocytes are emerging as having significant roles in several homeostatic processes in the brain [Zuchero J B, Barres B A. Glia in mammalian development and disease. Development 2015 142: 3805-3809]. To evaluate the potential effects of Compound A (10 μM) on astrocyte metabolism, the uptake of glucose and lactate release were measured 30 minutes after application of compounds to the culture (FIGS. 2 and 3).
Lactate release into the medium was measured enzymatically by a modification of the enzymatic spectrophotometric method of Rosenberg and Rush [Rosenberg J C, Rush B F. An enzymatic-spectrophotometric determination of pyruvic and lactic acid in blood. Methodologic aspects. Clin Chem. 1966; 12(5):299-307.]. Incubations were carried out exactly as described for [3H]2DG uptake experiments except for the fact that no tracer and no phenol red (which otherwise interferes with the spectrophotometric determination of lactate) were present in the incubation medium. […]

TrkB receptor = assay: Activation of TrkB receptor: phosphorylation in cortical neurons (WES capillary immunoassay); type: cell-based, mouse
Protocol: On the day of preparation (DIV1) cortical neurons were seeded on poly-D-lysine pre-coated 6-well plates at a density of 1.25*10^6 cells per well and cultured at 37° C.; 95% humidity and 5% CO2 until […] with a half medium exchange on DIV4-6. On DIV10 cells are treated with test item TI (SND118) and control Rh (7,8DHF) at different concentrations for 15 min. The experiment was carried out with n=6 technical replicates per condition, vehicle treated cells served as control. Cells were lysed in 150 μL cold RIPA buffer [50 mM Tris pH 7.4, 1% Nonidet P40, 0.25% Na-deoxy-cholate, 150 mM NaCl, 1 mM EDTA supplemented with freshly added 1 μM NaF, 0.2 mM Na-ortho-vanadate, 80 μM Glycerophosphate, protease (Calbiochem) and phosphatase (Sigma) inhibitor cocktail.
Phosphorylation of the TrkB receptor was detected using the following rabbit anti-Tyr specific antibodies: anti-TrkB Y515, Y706/707 and Y816 and compared with total TrkB detected with anti-TrkB antibody (Abcam). Antibody dilutions and protein amounts were optimized for signal specificity.
Automated separation and immunostaining of total and phospho TrkB was carried out using a capillary-based immunoassay, WES™ (Proteinsimple®). Samples were applied to a 25 capillary cartridge with a 2 to 440 kDa matrix, at an optimized total protein concentration. Sample loading, separation, immunoprobing, washing, detection and quantitative data analysis were performed automatically by WES™ Western system (Compass software V 4.0.0). The areas under the curve were used for the analysis and the phosphorylated versus vehicle or total TrkB signal ratio was calculated and used for statistics.

TNF-α = assay: LPS stimulation of BV-2 microglia: TNF-α; type: cell-based, murine; conditions: between 0.3 and 3 μM, BV2, LPS 500 ng/ml, 24 h
Protocol: (§1) The murine microglial cell line BV-2 was grown in DMEM medium supplemented with 10% FCS, 1% penicillin/streptomycin and 2 mM L-glutamine (culture medium). For LPS stimulation assay, 10000 BV-2 cells per well (uncoated 96 well plates) were plated and after 24 hours, medium was changed to serum-free treatment medium (DMEM, 2 mM L-glutamine) and cells were maintained in treatment medium for the remaining culture period. 1 h after changing cells to treatment medium, the test items were added 1 hour before LPS stimulation (Sigma-Aldrich; L6529; 1 mg/ml stock in ddH2O, final concentration in well: 500 ng/ml (dilutions in medium)). Cells treated with vehicle, cells treated with LPS alone, as well as cells treated with LPS plus reference dexamethasone at 10 μM item served as controls.
(§2) Following 24 h of stimulation, cell supernatants were collected for the NO, and cytokine measurements. Levels of 2 cytokines (TNF-α, IL-6) were measured by an immunosorbent assay (U-PLEX Custom […] Cytokine, Mesoscale Discovery) according to the instructions of the manufacturer and evaluated in comparison to calibration curves provided in the kit. […] Absorbance was measured at 570 nm. Nitrosative stress was evaluated in the study samples in comparison to a NaNO2 standard curve. […]

NO = assay: LPS stimulation of BV-2 microglia: NO (Griess reagent); type: cell-based, murine; conditions: between 0.3 and 3 μM, BV2, LPS 500 ng/ml, 24 h
Protocol: as §1, §2

[2] = Metabolic stability in mouse liver microsomes; type: in vitro ADME; conditions: male, CD1, mouse, pooled liver microsomes, pH 7.4, 0.5 mg/ml protein, read-out: T1/2 LM mouse
Protocol: Sample type: pooled liver or intestine microsomes; Species: CD1-mouse (male), human (mixed gender) Time points: 0, 10, 20, 40, 60 min cofactors, and negative control;
Protein content: 0.5 mg/ml: Replicates: 2 with cofactors, 1 without cofactors; Cofactors: NADPH (1 mM)+UDPGA (1 mM)+15 μg/ml alamethicin Buffer: 0.1 M phosphate buffer pH 7.4, 2 mM MgCl2; Spiking solvent: 50% DMSO ( 1/100 to incubation); Quenching solvent: 2-fold volume of 75% ACN, Control: midazolam disappearance rate
The study compounds were incubated with liver or intestine microsomes as specified above. The collected samples were stored at −20 C until thawed at room temperature, centrifuged and analyzed as presented below.
The samples were analysed by UPLC/HR-MS (with data dependent MS/MS mode) to monitor substrate depletion (and later optionally metabolite formation). The analytical method was optimised by using the parent compound for optimum chromatographic properties (peak shape and retention) and mass spectrometric ionisation. Disappearance rate of the study compound was estimated based on relative LC/MS peak areas (o min marked as 100%), and was used to calculate in vitro half-life and clearance (and in vivo extrapolation of hepatic clearance).

Structure (SMILES): O=c1cc(-c2ccc(CCCC[P+](c3ccccc3)(c3ccccc3)c3ccccc3)cc2)oc2c(O)c(O)ccc12 [SND118, 4-[4-(7,8-dihydroxy-4-oxo-chromen-2-yl)phenyl]butyltriphenylphosphonium bromide]
- release of L-lactate [1]: increased the release of L-lactate
- phospho Tyr706/707 signal normalized to the TrkB (TrkB receptor): significant increase
- phosphorylation of the TrkB receptor at sites Tyr 515 and Tyr 816 (TrkB receptor; 1 and 2 μM): induced statistically significant phosphorylation
- phosphorylation of TrkB at Tyr residue 706/707 versus the vehicle (TrkB receptor; SND118 2 μM): increased slightly
- level of TNF-α in response to LPS stimulation (TNF-α): significantly decreased
- level of NO in response to LPS stimulation (NO): significantly decreased
- half-life at 1 μM [2]: 23 min
